Measured values taken from ChEMBL document CHEMBL1129074, “Inhibitors of human immunodeficiency virus type 1 derived from gp41 transmembrane protein: structure--activity studies” (J Med Chem, 1996).
Peptide text beside a SMILES is read from it.

Each molecule was assayed on MT4 (assay: Inhibitory potency of gp41 fragment against HIV-1 induced cytopathic effect in MT-4 cell assay). Conditions: Homo sapiens.
Assay type: functional, cell-based
CC[C@H](C)[C@H](NC(=O)CNC(=O)[C@H](Cc1c[nH]c2ccccc12)NC(=O)[C@@H](NC(=O)[C@@H](NC(=O)[C@H](CC(C)C)NC(=O)[C@H](CCC(N)=O)NC(=O)[C@H](CC(C)C)NC(=O)CNC(=O)CNC(=O)[C@H](CS)NC(C)=O)[C@@H](C)O)C(C)C)C(=O)N[C@@H](CCCCN)C(=O)N[C@@H](CCC(N)=O)C(=O)N[C@@H](CC(C)C)C(=O)N[C@@H](CCC(N)=O)C(=O)N[C@@H](C)C(=O)N[C@@H](CCCN=C(N)N)C(=O)N[C@H](C(=O)N[C@@H](CC(C)C)C(=O)N[C@@H](C)C(=O)N[C@H](C(=O)N[C@@H](CCC(=O)O)C(=O)N[C@@H](CCCN=C(N)N)C(=O)N[C@@H](Cc1ccc(O)cc1)C(=O)N[C@@H](CC(C)C)C(=O)N[C@@H](CCCCN)C(=O)N[C@@H](CC(=O)O)C(=O)N[C@@H](CCC(N)=O)C(=O)O)C(C)C)[C@@H](C)CC (Ac-CGGLQLTVWGIKQLQARILAVERYLKDQ-OH) showed an IC50 of 60.5 µM.
In the case of CC[C@H](C)[C@H](NC(=O)CNC(=O)[C@H](Cc1c[nH]c2ccccc12)NC(=O)[C@@H](NC(=O)[C@@H](NC(=O)[C@H](CC(C)C)NC(=O)[C@H](CCC(N)=O)NC(=O)[C@H](CC(C)C)NC(=O)[C@H](CC(C)C)NC(=O)[C@H](Cc1c[nH]cn1)NC(=O)[C@H](CCC(N)=O)NC(=O)[C@H](CCC(N)=O)NC(=O)[C@H](C)NC(=O)[C@H](CCC(=O)O)NC(=O)[C@@H](NC(=O)[C@H](C)NC(=O)[C@H](CCCN=C(N)N)NC(=O)[C@H](CC(C)C)NC(=O)[C@H](CC(C)C)NC(=O)[C@H](CC(N)=O)NC(=O)[C@H](CC(N)=O)NC(=O)CNC(=O)CNC(=O)[C@H](CS)NC(C)=O)[C@@H](C)CC)[C@@H](C)O)C(C)C)C(=O)N[C@@H](CCCCN)C(=O)N[C@@H](CCC(N)=O)C(=O)O (Ac-CGGNNLLRAIEAQQHLLQLTVWGIKQ-OH), the IC50 is reported as 14.8 µM.
With CC[C@H](C)[C@H](NC(C)=O)C(=O)N[C@@H](CCC(=O)O)C(=O)N[C@@H](C)C(=O)N[C@@H](CCC(N)=O)C(=O)N[C@@H](CCC(N)=O)C(=O)N[C@@H](Cc1c[nH]cn1)C(=O)N[C@@H](CC(C)C)C(=O)N[C@@H](CC(C)C)C(=O)N[C@@H](CCC(N)=O)C(=O)N[C@@H](CC(C)C)C(=O)N[C@H](C(=O)N[C@H](C(=O)N[C@@H](Cc1c[nH]c2ccccc12)C(=O)NCC(=O)N[C@H](C(=O)N[C@@H](CCCCN)C(=O)N[C@@H](CCC(N)=O)C(=O)N[C@@H](CC(C)C)C(=O)N[C@@H](CCC(N)=O)C(=O)N[C@@H](C)C(=O)N[C@@H](CCCN=C(N)N)C(=O)N[C@H](C(=O)N[C@@H](CC(C)C)C(=O)N[C@@H](C)C(=O)N[C@H](C(=O)N[C@@H](CCC(=O)O)C(=O)O)C(C)C)[C@@H](C)CC)[C@@H](C)CC)C(C)C)[C@@H](C)O (Ac-IEAQQHLLQLTVWGIKQLQARILAVE-OH) the IC50 was 6.5 µM.
CC[C@H](C)[C@H](NC(=O)CNC(=O)[C@H](Cc1c[nH]c2ccccc12)NC(=O)[C@@H](NC(=O)[C@@H](NC(=O)[C@H](CC(C)C)NC(=O)[C@H](CCC(N)=O)NC(=O)[C@H](CC(C)C)NC(=O)[C@H](CC(C)C)NC(=O)[C@H](Cc1c[nH]cn1)NC(=O)[C@H](C)NC(=O)[C@H](CCC(N)=O)NC(=O)[C@H](C)NC(=O)[C@H](CCC(=O)O)NC(=O)[C@@H](NC(=O)[C@H](C)NC(=O)[C@H](CCCN=C(N)N)NC(=O)[C@H](C)NC(=O)[C@H](CC(C)C)NC(=O)[C@H](CC(N)=O)NC(=O)[C@H](CC(N)=O)NC(C)=O)[C@@H](C)CC)[C@@H](C)O)C(C)C)C(=O)N[C@@H](CCCCN)C(=O)N[C@@H](CCC(N)=O)C(=O)N[C@@H](CC(C)C)C(=O)N[C@@H](CCC(N)=O)C(=O)N[C@@H](C)C(=O)N[C@@H](CCCN=C(N)N)C(=O)N[C@H](C(=O)N[C@@H](CC(C)C)C(=O)N[C@@H](C)C(=O)N[C@H](C(=O)N[C@@H](CCC(=O)O)C(=O)N[C@@H](CCCN=C(N)N)C(=O)N[C@@H](Cc1ccc(O)cc1)C(=O)N[C@@H](CC(C)C)C(=O)N[C@@H](CCCCN)C(=O)N[C@@H](CC(=O)O)C(=O)N[C@@H](CCC(N)=O)C(=O)O)C(C)C)[C@@H](C)CC (Ac-NNLARAIEAQAHLLQLTVWGIKQLQARILAVERYLKDQ-OH) was tested, and the IC50 was 3 µM.
CC[C@H](C)[C@H](NC(=O)CNC(=O)[C@H](Cc1c[nH]c2ccccc12)NC(=O)[C@@H](NC(=O)[C@@H](NC(=O)[C@H](CC(C)C)NC(=O)[C@H](CCC(N)=O)NC(=O)[C@H](CC(C)C)NC(=O)[C@H](CC(C)C)NC(=O)[C@H](Cc1c[nH]cn1)NC(=O)[C@H](CCC(N)=O)NC(C)=O)[C@@H](C)O)C(C)C)C(=O)N[C@@H](CCCCN)C(=O)N[C@@H](CCC(N)=O)C(=O)N[C@@H](CC(C)C)C(=O)N[C@@H](CCC(N)=O)C(=O)N[C@@H](C)C(=O)N[C@@H](CCCN=C(N)N)C(=O)N[C@H](C(=O)N[C@@H](CC(C)C)C(=O)N[C@@H](C)C(=O)N[C@H](C(=O)N[C@@H](CCC(=O)O)C(=O)O)C(C)C)[C@@H](C)CC (Ac-QHLLQLTVWGIKQLQARILAVE-OH) was tested, and the IC50 was 4.3 µM.
CC[C@H](C)[C@H](NC(=O)CNC(=O)[C@H](Cc1c[nH]c2ccccc12)NC(=O)[C@@H](NC(=O)[C@@H](NC(=O)[C@H](CC(C)C)NC(=O)[C@H](CCC(N)=O)NC(=O)[C@H](CC(C)C)NC(=O)[C@H](CC(C)C)NC(=O)[C@H](Cc1c[nH]cn1)NC(=O)[C@H](CCC(N)=O)NC(=O)[C@H](CCC(N)=O)NC(=O)[C@H](C)NC(=O)[C@H](CCC(=O)O)NC(=O)[C@@H](NC(=O)[C@H](C)NC(=O)[C@H](CCCN=C(N)N)NC(=O)[C@H](CC(C)C)NC(=O)[C@H](CC(C)C)NC(=O)[C@H](CC(N)=O)NC(=O)[C@@H](N)CC(N)=O)[C@@H](C)CC)[C@@H](C)O)C(C)C)C(=O)N[C@@H](CCCCN)C(=O)N[C@@H](CCC(N)=O)C(=O)N[C@@H](CC(C)C)C(=O)N[C@@H](CCC(N)=O)C(=O)N[C@@H](C)C(=O)N[C@@H](CCCN=C(N)N)C(=O)N[C@H](C(=O)N[C@@H](CC(C)C)C(=O)N[C@@H](C)C(=O)N[C@H](C(=O)N[C@@H](CCC(=O)O)C(=O)N[C@@H](CCCN=C(N)N)C(=O)N[C@@H](Cc1ccc(O)cc1)C(=O)N[C@@H](CC(C)C)C(=O)N[C@@H](CCCCN)C(=O)N[C@@H](CC(=O)O)C(=O)N[C@@H](CCC(N)=O)C(=O)O)C(C)C)[C@@H](C)CC (H-NNLLRAIEAQQHLLQLTVWGIKQLQARILAVERYLKDQ-OH) showed an IC50 of 2.7 µM.
CC[C@H](C)[C@H](NC(=O)CNC(=O)[C@H](Cc1c[nH]c2ccccc12)NC(=O)[C@@H](NC(=O)[C@@H](NC(=O)[C@H](CC(C)C)NC(=O)[C@H](CCC(N)=O)NC(=O)[C@H](CC(C)C)NC(=O)[C@H](CC(C)C)NC(=O)CCCCCN)[C@@H](C)O)C(C)C)C(=O)N[C@@H](CCCCN)C(=O)N[C@@H](CCC(N)=O)C(=O)N[C@@H](CC(C)C)C(=O)N[C@@H](CCC(N)=O)C(=O)N[C@@H](C)C(=O)N[C@@H](CCCN=C(N)N)C(=O)N[C@H](C(=O)N[C@@H](CC(C)C)C(=O)O)[C@@H](C)CC (HELM PEPTIDE1{[NCCCCCC(=O)[*:2]].L.L.Q.L.T.V.W.G.I.K.Q.L.Q.A.R.I.L}$$$$V2.0) was tested, and the IC50 was 10.4 µM.
